Reference: the supplement of paper PMC10883282
± gives the standard deviation of the averaged measurements.

Test system: KHOS-240S
Assay: relative viability vs DMSO control (72 h) (fraction); higher = more viable cells
In short: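 Relative viability is percent growth read by ATPLite and averaged over up to triplicate wells. Sarcoma cells were seeded in 384-well plates to reach 80–90% confluence and given 2.5 µl of serially diluted compound after 24 h, from source plates of 10 mM to 0.0002 mM. Incubation lasted 72 h at 37 °C, 5% CO2, with 0.1% DMSO vehicle and a 5 µM positive control, and the data were rescaled so 1 equals full and 0 equals none.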

SMILES | relative viability (2 pM) | relative viability (5 pM) | relative viability (15 pM) | relative viability (50 pM) | relative viability (0.00014 µM) | relative viability (0.00041 µM) | relative viability (0.0012 µM) | relative viability (0.0037 µM) | relative viability (0.011 µM) | relative viability (200 fM) | relative viability (600 fM) | relative viability (0.00017 µM) | relative viability (0.00051 µM) | relative viability (0.00152 µM) | relative viability (0.00457 µM) | relative viability (0.01372 µM) | relative viability (0.04115 µM) | relative viability (0.1235 µM) | relative viability (0.3704 µM) | relative viability (1.111 µM) | relative viability (3.333 µM) | relative viability (10 µM)
COc1cc2c(cc1O)CCN[C@]21CS[C@@H]2c3c(OC(C)=O)c(C)c4c(c3[C@H](COC1=O)N1[C@@H]2[C@H]2c3c(cc(C)c(OC)c3O)C[C@@H]([C@@H]1O)N2C)OCO4 [Trabectedin] | 1.07 ± 0.015 | 1.082 ± 0.0023 | 1.07 ± 0.042 | 0.946 ± 0.034 | 0.482 ± 0.054 | 0.00547 ± 0.0011 | 0.0576 ± 0.0015 | 0.0794 ± 0.014 | 0.0885 ± 0.032 | 1.08 ± 0.022 | 1.08 ± 0.022 |  |  |  |  |  |  |  |  |  |  | 
N#CC[C@H](C1CCCC1)n1cc(-c2ncnc3[nH]ccc23)cn1 [Ruxolitinib] |  |  |  |  |  |  |  |  |  |  |  | 0.984 ± 0.0066 | 0.984 ± 0.012 | 0.97 ± 0.043 | 0.975 ± 0.025 | 0.95 ± 0.035 | 0.966 ± 0.028 | 0.943 ± 0.037 | 0.912 ± 0.037 | 0.88 ± 0.024 | 0.773 ± 0.037 | 0.583 ± 0.015
Cc1cc(C)c(/C=C2\C(=O)Nc3ccccc32)[nH]1 [Semaxanib] |  |  |  |  |  |  |  |  |  |  |  | 1.01 ± 0.02 | 1.01 ± 0.032 | 1.01 ± 0.025 | 1.02 ± 0.034 | 0.99 ± 0.01 | 0.966 ± 0.013 | 0.951 ± 0.022 | 0.959 ± 0.024 | 0.844 ± 0.025 | 0.812 ± 0.023 | 0.803 ± 0.024
O=C(Cc1ccc(-c2ccc(OCCN3CCOCC3)cc2)cn1)NCc1ccccc1 [KX2-391] |  |  |  |  |  |  |  |  |  |  |  | 1.07 ± 0.025 | 1.1 ± 0.037 | 1.1 ± 0.02 | 1.07 ± 0.035 | 1.06 ± 0.049 | 0.896 ± 0.022 | 0.26 ± 0.013 | 0.221 ± 0.014 | 0.161 ± 0.011 | 0.142 ± 0.02 | 0.134 ± 0.015
COc1cc2c(Oc3ccc4[nH]c(C)cc4c3F)ncnc2cc1OCCCN1CCCC1 [Cediranib] |  |  |  |  |  |  |  |  |  |  |  | 1.06 ± 0.017 | 1.05 ± 0.021 | 1.082 ± 0.0088 | 1.07 ± 0.02 | 1.05 ± 0.013 | 1.03 ± 0.011 | 0.992 ± 0.015 | 0.922 ± 0.022 | 0.908 ± 0.013 | 0.906 ± 0.032 | 0.898 ± 0.015
CO[C@H]1C[C@@H]2CC[C@@H](C)[C@@](O)(O2)C(=O)C(=O)N2CCCC[C@H]2C(=O)O[C@H]([C@H](C)C[C@@H]2CC[C@@H](OP(C)(C)=O)[C@H](OC)C2)CC(=O)[C@H](C)/C=C(\C)[C@@H](O)[C@@H](OC)C(=O)[C@H](C)C[C@H](C)/C=C/C=C/C=C/1C [Ridaforolimus] |  |  |  |  |  |  |  |  |  |  |  | 1.03 ± 0.012 | 1.03 ± 0.027 | 0.987 ± 0.027 | 0.932 ± 0.015 | 0.919 ± 0.026 | 0.898 ± 0.022 | 0.878 ± 0.014 | 0.851 ± 0.016 | 0.826 ± 0.032 | 0.777 ± 0.018 | 0.741 ± 0.017
Cc1cnc(Nc2ccc(OCCN3CCCC3)cc2)nc1Nc1cccc(S(=O)(=O)NC(C)(C)C)c1 [Fedratinib] |  |  |  |  |  |  |  |  |  |  |  | 1.07 ± 0.046 | 1.07 ± 0.047 | 1.07 ± 0.033 | 1.06 ± 0.023 | 1.05 ± 0.058 | 1.05 ± 0.094 | 0.989 ± 0.062 | 0.801 ± 0.018 | 0.412 ± 0.031 | 0.103 ± 0.011 | 0.0053 ± 0.0017
Cn1cc(-c2cc3c(N4CCN(c5ncc([C@@](C)(N)c6ccc(F)cc6)cn5)CC4)ncnn3c2)cn1 [Avapritinib] |  |  |  |  |  |  |  |  |  |  |  | 1.03 ± 0.022 | 1.025 ± 0.0056 | 1 ± 0.039 | 0.992 ± 0.038 | 1.02 ± 0.033 | 1.01 ± 0.014 | 0.965 ± 0.024 | 0.943 ± 0.021 | 0.84 ± 0.026 | 0.783 ± 0.027 | 0.656 ± 0.025
CN1CCN(c2ccc3nc(-c4c(N)c5c(F)cccc5[nH]c4=O)[nH]c3c2)CC1 [Dovitinib] |  |  |  |  |  |  |  |  |  |  |  | 1.07 ± 0.031 | 1.04 ± 0.051 | 1.06 ± 0.046 | 1.02 ± 0.023 | 1.05 ± 0.033 | 1.08 ± 0.019 | 0.979 ± 0.022 | 0.891 ± 0.059 | 0.548 ± 0.014 | 0.289 ± 0.027 | 0.0854 ± 0.0022
